# Test results from PMC9636434, “Discovery of small molecule agonists of the Relaxin Family Peptide Receptor 2” (Communications Biology, 2022).
# Where “and” joins values, the source holds several entries; their conditions need not be identical. Identical values can stand only once.
# Molecular target: T1, human PTHR1 (Homo sapiens, UniProt Q03431)
# T1 sequence (Q03431 27-593): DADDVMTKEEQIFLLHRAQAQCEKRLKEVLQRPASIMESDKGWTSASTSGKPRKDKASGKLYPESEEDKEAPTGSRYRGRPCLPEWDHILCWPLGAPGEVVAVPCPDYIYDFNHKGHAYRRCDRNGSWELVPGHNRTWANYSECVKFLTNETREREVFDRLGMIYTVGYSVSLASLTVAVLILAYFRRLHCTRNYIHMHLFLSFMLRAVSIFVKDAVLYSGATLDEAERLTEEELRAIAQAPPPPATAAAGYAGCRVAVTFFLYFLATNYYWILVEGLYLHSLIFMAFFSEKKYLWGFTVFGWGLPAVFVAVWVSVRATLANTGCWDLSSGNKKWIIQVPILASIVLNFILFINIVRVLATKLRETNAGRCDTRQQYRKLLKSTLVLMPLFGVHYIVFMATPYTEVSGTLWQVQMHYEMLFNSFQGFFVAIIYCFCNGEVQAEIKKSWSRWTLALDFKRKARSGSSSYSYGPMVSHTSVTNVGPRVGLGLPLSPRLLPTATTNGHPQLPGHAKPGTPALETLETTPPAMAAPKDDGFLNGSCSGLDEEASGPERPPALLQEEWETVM
# Experiment: HitHunter cAMP XS+ assay, cAMP Hunter cell line PTHR1
# Assay type: cell-based
# Conditions: for RLU: replicates (1),(2)
# Text: Results are reported as raw RLU values and represent the
# mean ± SEM of 2 technical replicates.
smiles,measurement,setting,value
O=C1Nc2ccc(-c3cc(C(F)(F)F)cc(C(F)(F)F)c3)cc2C(=O)N2CCN(C(=O)COc3ccc(OC(F)(F)F)cc3I)C[C@@H]12 [compound 6641],cAMP response through PTHR1,Hit Hunter cAMP assay,does not activate
same,RLU,Log [M] -4.70,1080 RLU
same,RLU,Log [M] -5.18,1000 RLU
same,RLU,Log [M] -5.65,960 RLU
same,RLU,Log [M] -6.13,1040 RLU
same,RLU,Log [M] -6.61,920 RLU and 960 RLU
same,RLU,Log [M] -7.08,1200 RLU and 1040 RLU
same,RLU,Log [M] -7.56,1000 RLU and 880 RLU
same,RLU,Log [M] -8.04,1000 RLU and 920 RLU
same,RLU,Log [M] -8.52,920 RLU and 1000 RLU
same,RLU,Log [M] -8.99,800 RLU
